US12146004B2, “Polymyxin compounds and uses thereof” (priority 2014, dated 2024)
≈ marks a conversion by molar mass, not a printed value. Read-outs that look alike come from different tables or passages of the source.

How the values were obtained:
Type in all cases: cell-based
Pseudomonas aeruginosa = test system: Pseudomonas aeruginosa
Protocol: (§1) To evaluate the potency and spectrum of the compounds, susceptibility testing was performed against up to nine strains of each of the Gram negative pathogens, Escherichia coli, Pseudomonas aeruginosa, Klebsiella pneumoniae and Acinetobacter baumannii.
(§2) The values in Table 2 are MIC (μg/mL) against strains of E. coli, K. pneumoniae, P. aeruginosa and A. baumanii, including strains which show elevated MICs to Polymyxin.
(§3) The values in Table 2A are MIC (μg/mL).
(§4) The in vitro activity of compounds 26 and C7 (FADDI-02) against resistant bacterial strains was compared. The resistant strains included including Escherichia coli, Pseudomonas aeruginosa, Klebsiella pneumoniae and Acinetobacter baumannii strains. The data is provided in Table 2C, where the strains are identified. The values in Table 2 are MIC (μg/mL).

Acinetobacter baumannii = test system: Acinetobacter baumannii
Protocol: as §1, §2, §3, §4

Klebsiella pneumoniae = test system: Klebsiella pneumoniae
Protocol: as §1, §2, §3, §4

Escherichia coli = test system: Escherichia coli
Protocol: as §1, §2, §3, §4

| MIC P. aeruginosa 068 (Pseudomonas aeruginosa) [µg/mL] | MIC P. aeruginosa 070 (Pseudomonas aeruginosa) [µg/mL] | MIC P. aeruginosa ATCC 27853 (Pseudomonas aeruginosa) [µg/mL] | MIC A. baumanii 053 (Acinetobacter baumannii) [µg/mL] | MIC A. baumanii 056 (Acinetobacter baumannii) [µg/mL] | MIC A. baumanii ATCC BAA-747 (Acinetobacter baumannii) [µg/mL] | MIC K. pneumoniae 063 (Klebsiella pneumoniae) [µg/mL] | MIC K. pneumoniae 065 (Klebsiella pneumoniae) [µg/mL] | MIC E. coli 058 (Escherichia coli) [µg/mL] | MIC E. coli 061 (Escherichia coli) [µg/mL] | MIC E. coli ATCC 25922 (Escherichia coli) [µg/mL] | MIC P. aeruginosa CCUG 59347 (Pseudomonas aeruginosa) [µg/mL] | MIC A. baumanii NCTC 13424 (Acinetobacter baumannii) [µg/mL] | MIC K. pneumoniae ATCC 13882 (Klebsiella pneumoniae) [µg/mL] | MIC E. coli NCTC 9001 (Escherichia coli) [µg/mL] | SMILES | also measured |
| --- | --- | --- | --- | --- | --- | --- | --- | --- | --- | --- | --- | --- | --- | --- | --- | --- |
| 4 (≈ 3.26 µM) | 4 (≈ 3.26 µM) | 2 (≈ 1.63 µM) | 2 (≈ 1.63 µM) | 2 (≈ 1.63 µM) | 2 (≈ 1.63 µM) | 4 (≈ 3.26 µM) | 2 (≈ 1.63 µM) | 2 (≈ 1.63 µM) | 2 (≈ 1.63 µM) | 2 (≈ 1.63 µM) |  |  |  |  | CCCCCC/C=C/c1ccc(C[C@H]2NC(=O)[C@H](CCN)NC(=O)[C@@H](NC(=O)[C@H](CN)NC(=O)[C@@H](NC(=O)C3CNCC(CC(C)C)C3)C(C)O)CCNC(=O)[C@H]([C@@H](C)O)NC(=O)[C@H](CCN)NC(=O)[C@H](CCN)NC(=O)[C@H](CC(C)C)NC2=O)cc1 (single isomer, unassigned; isomer 2) [Example 18, (trans-5-(isobutyl-piperidine)-3-carbonyl L-Thr-L-Dap-polymyxin [D-(4-(E)-oct-1-enyl)-Phe]-6]heptapeptide Isomer 2] | MIC K. pneumoniae 062 (Klebsiella pneumoniae): 2 µg/mL (≈ 1.63 µM); MIC K. pneumoniae 064 (Klebsiella pneumoniae): 4 µg/mL (≈ 3.26 µM); MIC K. pneumoniae 066 (Klebsiella pneumoniae): 2 µg/mL (≈ 1.63 µM); MIC K. pneumoniae 067 (Klebsiella pneumoniae): 4 µg/mL (≈ 3.26 µM); MIC K. pneumoniae ATCC 4352 (Klebsiella pneumoniae): 2 µg/mL (≈ 1.63 µM); MIC E. coli 059 (Escherichia coli): 1 µg/mL (≈ 0.815 µM); MIC E. coli 060 (Escherichia coli): 2 µg/mL (≈ 1.63 µM) |
|  |  | 0.5 (≈ 0.437 µM) |  |  | 1 (≈ 0.874 µM) |  | 2 (≈ 1.75 µM) | 8 (≈ 6.99 µM) |  | 0.125 (≈ 0.109 µM) | 0.5 (≈ 0.437 µM) | 2 (≈ 1.75 µM) | 0.125 (≈ 0.109 µM) |  | CC(C)C[C@@H]1NC(=O)[C@@H](CC2CCCCC2)NC(=O)[C@H](CCN)NC(=O)[C@@H](NC(=O)[C@H](CCN)NC(=O)[C@@H](NC(=O)C(CCN)Cc2ccccc2)C(C)O)CCNC(=O)[C@H]([C@@H](C)O)NC(=O)[C@H](CCN)NC(=O)[C@H](CCN)NC1=O (single isomer, unassigned; isomer 2) [Example 36, 4-amino-2-benzylbutanoyl-polymyxin [D-cyclohexylalanine]-6 nonapeptide. isomer 2] |  |
|  |  |  |  |  |  |  |  |  |  |  |  |  |  |  | CC(C)C[C@@H]1NC(=O)[C@@H](CC2CCCCC2)NC(=O)[C@H](CCN)NC(=O)[C@@H](NC(=O)[C@H](CN)NC(=O)[C@@H](NC(=O)CC(CN)C2CCCCC2)C(C)O)CCNC(=O)[C@H]([C@@H](C)O)NC(=O)[C@H](CCN)NC(=O)[C@H](CCN)NC1=O (single isomer, unassigned; isomer 2) [Example 43, 4-amino-3-cyclohexylbutanoyl L-Thr-L-Dap-polymyxin [D-cyclohexylalanine]-6 heptapeptide. isomer 2] | MIC P. aeruginosa 068 (Pseudomonas aeruginosa; strain 068): 2 µg/mL (≈ 1.78 µM); MIC P. aeruginosa 070 (Pseudomonas aeruginosa; strain 070): 2 µg/mL (≈ 1.78 µM); MIC P. aeruginosa ATCC 27853 (Pseudomonas aeruginosa; strain ATCC 27853): 0.25 µg/mL (≈ 0.223 µM); MIC P. aeruginosa CCUG 59347 (Pseudomonas aeruginosa; strain CCUG 59347): 0.25 µg/mL (≈ 0.223 µM); MIC A. baumanii 053 (Acinetobacter baumannii; strain 053): 64 µg/mL (≈ 57 µM); MIC A. baumanii 056 (Acinetobacter baumannii; strain 056): 32 µg/mL (≈ 28.5 µM); MIC A. baumanii ATCC BAA-747 (Acinetobacter baumannii; strain ATCC BAA-747): 0.125 µg/mL (≈ 0.111 µM); MIC A. baumanii NCTC 13424 (Acinetobacter baumannii; strain NCTC 13424): 0.25 µg/mL (≈ 0.223 µM); MIC K. pneumoniae 063 (Klebsiella pneumoniae; strain 063): 16 µg/mL (≈ 14.3 µM); MIC K. pneumoniae 065 (Klebsiella pneumoniae; strain 065): 0.5 µg/mL (≈ 0.445 µM); MIC K. pneumoniae ATCC 13882 (Klebsiella pneumoniae; strain ATCC 13882): 0.25 µg/mL (≈ 0.223 µM); MIC E. coli 058 (Escherichia coli; strain 058): 1 µg/mL (≈ 0.891 µM); MIC E. coli 061 (Escherichia coli; strain 061): 8 µg/mL (≈ 7.13 µM); MIC E. coli ATCC 25922 (Escherichia coli; strain ATCC 25922): 0.25 µg/mL (≈ 0.223 µM); MIC E. coli NCTC 9001 (Escherichia coli; strain NCTC 9001): 0.06 µg/mL (≈ 0.0535 µM) |
| 2 (≈ 1.76 µM) | 1 (≈ 0.882 µM) | 0.25 (≈ 0.22 µM) |  | 8 (≈ 7.05 µM) | 0.06 (≈ 0.0529 µM) | 16 (≈ 14.1 µM) | 0.5 (≈ 0.441 µM) | 2 (≈ 1.76 µM) | 8 (≈ 7.05 µM) | 0.25 (≈ 0.22 µM) | 0.5 (≈ 0.441 µM) | 0.06 (≈ 0.0529 µM) | 0.25 (≈ 0.22 µM) | 0.03 (≈ 0.0264 µM) | CC(C)C[C@@H]1NC(=O)[C@@H](CC2CCCCC2)NC(=O)[C@H](CCN)NC(=O)[C@@H](NC(=O)[C@H](CN)NC(=O)[C@@H](NC(=O)C(CCN)c2ccc(F)cc2)C(C)O)CCNC(=O)[C@H]([C@@H](C)O)NC(=O)[C@H](CCN)NC(=O)[C@H](CCN)NC1=O (single isomer, unassigned; isomer 2) [Example 44, 4-amino-2-(4-fluorophenyl) butanoyl L-Thr-L-Dap-polymyxin [D-cyclohexylalanine]-6 heptapeptide. Isomer 2] | MIC K. pneumoniae ATCC 4352 (Klebsiella pneumoniae): 0.125 µg/mL (≈ 0.11 µM) |
| 1 (≈ 0.871 µM) | 1 (≈ 0.871 µM) | 0.125 (≈ 0.109 µM) | 64 (≈ 55.7 µM) | 64 (≈ 55.7 µM) | 0.25 (≈ 0.218 µM) | 16 (≈ 13.9 µM) | 1 (≈ 0.871 µM) | 4 (≈ 3.48 µM) | 16 (≈ 13.9 µM) | 0.25 (≈ 0.218 µM) | 0.25 (≈ 0.218 µM) | 0.25 (≈ 0.218 µM) | 0.25 (≈ 0.218 µM) | 0.06 (≈ 0.0522 µM) | CC(C)C[C@@H]1NC(=O)[C@@H](CC2CCCCC2)NC(=O)[C@H](CCN)NC(=O)[C@@H](NC(=O)[C@H](CN)NC(=O)[C@@H](NC(=O)C(CCN)Cc2cccc(F)c2)C(C)O)CCNC(=O)[C@H]([C@@H](C)O)NC(=O)[C@H](CCN)NC(=O)[C@H](CCN)NC1=O (single isomer, unassigned; isomer 2) [Example 45, 4-amino-2-(3-fluorobenzyl) butanoyl L-Thr-L-Dap-polymyxin [D-cyclohexylalanine]-6 heptapeptide. isomer 2] |  |
|  |  | 0.5 (≈ 0.45 µM) |  |  | 0.125 (≈ 0.113 µM) |  | 0.5 (≈ 0.45 µM) | 4 (≈ 3.6 µM) |  | 0.25 (≈ 0.225 µM) | 0.5 (≈ 0.45 µM) | 0.25 (≈ 0.225 µM) | 0.5 (≈ 0.45 µM) | 0.125 (≈ 0.113 µM) | CCC(C)CC(CCN)C(=O)N[C@H](C(=O)N[C@@H](CN)C(=O)N[C@H]1CCNC(=O)[C@H]([C@@H](C)O)NC(=O)[C@H](CCN)NC(=O)[C@H](CCN)NC(=O)[C@H](CC(C)C)NC(=O)[C@@H](CC2CCCCC2)NC(=O)[C@H](CCN)NC1=O)C(C)O (single isomer, unassigned; isomer 2) [Example 47, 2-(2-aminoethyl)-4-methylhexanoyl L-Thr-L-Dap-polymyxin [D-cyclohexylalanine]-6 heptapeptide. Isomer 2] |  |
|  |  | 0.5 (≈ 0.434 µM) |  |  | 0.5 (≈ 0.434 µM) |  | 0.25 (≈ 0.217 µM) | 2 (≈ 1.74 µM) |  | 0.5 (≈ 0.434 µM) | 0.5 (≈ 0.434 µM) | 0.25 (≈ 0.217 µM) | 0.5 (≈ 0.434 µM) |  | CC(C)C[C@@H]1NC(=O)[C@@H](CC2CCCCC2)NC(=O)[C@H](CCN)NC(=O)[C@@H](NC(=O)[C@H](CN)NC(=O)[C@@H](NC(=O)CC(CN)c2ccc(Cl)cc2)C(C)O)CCNC(=O)[C@H]([C@@H](C)O)NC(=O)[C@H](CCN)NC(=O)[C@H](CCN)NC1=O (single isomer, unassigned; isomer 2) [Example 51, 4-amino-3-(4-chlorophenyl) butanoyl L-Thr-L-Dap-polymyxin [D-cyclohexylalanine]-6 heptapeptide. Isomer 2] |  |
| 8 (≈ 7.08 µM) | 8 (≈ 7.08 µM) | 0.25 (≈ 0.221 µM) | 64 (≈ 56.6 µM) | 64 (≈ 56.6 µM) | 0.5 (≈ 0.442 µM) | 64 (≈ 56.6 µM) | 4 (≈ 3.54 µM) | 4 (≈ 3.54 µM) | 32 (≈ 28.3 µM) | 0.25 (≈ 0.221 µM) | 0.5 (≈ 0.442 µM) | 0.5 (≈ 0.442 µM) | 0.25 (≈ 0.221 µM) | 0.125 (≈ 0.111 µM) | CC(C)C[C@@H]1NC(=O)[C@@H](CC2CCCCC2)NC(=O)[C@H](CCN)NC(=O)[C@@H](NC(=O)[C@H](CCN)NC(=O)[C@@H](NC(=O)C(CN)Cc2ccccc2)C(C)O)CCNC(=O)[C@H]([C@@H](C)O)NC(=O)[C@H](CCN)NC(=O)[C@H](CCN)NC1=O (single isomer, unassigned; isomer 2) [Example 53, 3-amino-2-benzylpropanoyl polymyxin [D-cyclohexylalanine]-6 nonapeptide. Isomer 2] |  |
| 4 (≈ 3.48 µM) | 4 (≈ 3.48 µM) | 0.25 (≈ 0.218 µM) | 32 (≈ 27.9 µM) | 8 (≈ 6.97 µM) | 0.125 (≈ 0.109 µM) | 32 (≈ 27.9 µM) | 1 (≈ 0.871 µM) | 4 (≈ 3.48 µM) | 16 (≈ 13.9 µM) | 0.125 (≈ 0.109 µM) | 0.5 (≈ 0.435 µM) | 0.25 (≈ 0.218 µM) | 0.25 (≈ 0.218 µM) | 0.06 (≈ 0.0522 µM) | CC(C)C[C@@H]1NC(=O)[C@@H](CC2CCCCC2)NC(=O)[C@H](CCN)NC(=O)[C@@H](NC(=O)[C@H](CCN)NC(=O)[C@@H](NC(=O)C(CCN)c2ccc(F)cc2)C(C)O)CCNC(=O)[C@H]([C@@H](C)O)NC(=O)[C@H](CCN)NC(=O)[C@H](CCN)NC1=O (single isomer, unassigned; isomer 2) [Example 54, 4-amino-2-(4-fluorophenyl) butanoyl polymyxin [D-cyclohexylalanine]-6 nonapeptide isomer 2] |  |
